Measurements published in article PMC7265429, “Characterization of a new small-molecule inhibitor of HDAC6 in glioblastoma” (Cell Death & Disease, 2020).

System: GNS166 cells
Assay: Microarray whole-transcriptome gene expression analysis
Assay type: cell-based, human
Protocol: Whole-transcriptome analysis was performed from 300 ng of RNA using HuGene-2_0-st-v1 expression array (Affymetrix), which covers 48,226 transcripts. Raw data were first checked for quality purposes through the Affymetrix® Expression Console™ Software v1.4.1 and TAC software v4.0. Then, data were normalized using the Robust Multi-array Average (RMA) and analyzed by Limma tool. Probesets with FDR-corrected p-values smaller than 0.05 were selected. Functional enrichment on Gene Ontology (GO) biological processes was performed on a smaller subset of the differentially expressed genes (corrected p-value < 0.001) by means of Broad Institute GSEA. […] The data that support this study have been deposited in NCBI´s Gene Expression Omnibus and are accessible through GEO series accession number GSE143887.

O=C(CCCCCCC(=O)Nc1ccccc1)NO [SAHA, Suberoylanilide hydroxamic acid]
logFC LIPA (5 µM SAHA vs DMSO, transcript TC1000012577.hg.1): 1.686
logFC ARNTL (5 µM SAHA vs DMSO, transcript TC1100006899.hg.1): 1.497
logFC C11orf74 (5 µM SAHA vs DMSO, transcript TC1100007307.hg.1): 1.1776
logFC FAM111B (5 µM SAHA vs DMSO, transcript TC1100007727.hg.1): 1.402
logFC CYP2R1 (5 µM SAHA vs DMSO, transcript TC1100010185.hg.1): 1.194
logFC SESN3 (5 µM SAHA vs DMSO, transcript TC1100012019.hg.1): 1.415
logFC MMP12 (5 µM SAHA vs DMSO, transcript TC1100012134.hg.1): 1.855
logFC BIRC3 (5 µM SAHA vs DMSO, transcript TC1100013087.hg.1): 2.344
logFC CCND2 (5 µM SAHA vs DMSO, transcript TC1200006555.hg.1): 1.786
logFC GPRC5A (5 µM SAHA vs DMSO, transcript TC1200006896.hg.1): 1.771
logFC STK38L (5 µM SAHA vs DMSO, transcript TC1200007146.hg.1): 1.792
logFC LRP1 (5 µM SAHA vs DMSO, transcript TC1200007861.hg.1): 1.377
logFC TCP11L2 (5 µM SAHA vs DMSO, transcript TC1200008726.hg.1): 1.788
logFC SLC2A3 (5 µM SAHA vs DMSO, transcript TC1200009800.hg.1): 1.712
logFC ABCD2 (5 µM SAHA vs DMSO, transcript TC1200010413.hg.1): 2.708
logFC NELL2 (5 µM SAHA vs DMSO, transcript TC1200010490.hg.1): 2.463
logFC FAIM2 (5 µM SAHA vs DMSO, transcript TC1200010642.hg.1): 1.773
logFC AGAP2 (5 µM SAHA vs DMSO, transcript TC1200010976.hg.1): 1.559
logFC KITLG (5 µM SAHA vs DMSO, transcript TC1200011460.hg.1): 1.767
logFC LUM (5 µM SAHA vs DMSO, transcript TC1200011495.hg.1): 3.868
logFC FGD6 (5 µM SAHA vs DMSO, transcript TC1200011574.hg.1): 1.639
logFC MGST1 (5 µM SAHA vs DMSO, transcript TC1200012597.hg.1): 1.82
logFC CCNA1 (5 µM SAHA vs DMSO, transcript TC1300006879.hg.1): 1.421
logFC SERTM1 (5 µM SAHA vs DMSO, transcript TC1300006883.hg.1): 2.721
logFC NDFIP2 (5 µM SAHA vs DMSO, transcript TC1300007592.hg.1): 1.353
logFC CLDN10 (5 µM SAHA vs DMSO, transcript TC1300007752.hg.1): 1.556
logFC RAP2A (5 µM SAHA vs DMSO, transcript TC1300007780.hg.1): 1.182
logFC SLITRK6 (5 µM SAHA vs DMSO, transcript TC1300009394.hg.1): 2.414
logFC KDELC1 (5 µM SAHA vs DMSO, transcript TC1300009674.hg.1): 1.5525
logFC HSPA2 (5 µM SAHA vs DMSO, transcript TC1400007443.hg.1): 3.285
logFC PPP4R4 (5 µM SAHA vs DMSO, transcript TC1400008058.hg.1): 2.48
logFC TXNDC16 (5 µM SAHA vs DMSO, transcript TC1400009184.hg.1): 1.763
logFC EGLN3 (5 µM SAHA vs DMSO, transcript TC1400010730.hg.1): 2.2444
logFC CKMT1B (5 µM SAHA vs DMSO, transcript TC1500007062.hg.1): 2.569
logFC CKMT1A (5 µM SAHA vs DMSO, transcript TC1500007067.hg.1): 3.452
logFC IQCH (5 µM SAHA vs DMSO, transcript TC1500007640.hg.1): 1.591
logFC ARRDC4 (5 µM SAHA vs DMSO, transcript TC1500008470.hg.1): 1.5
logFC GCOM1 (5 µM SAHA vs DMSO, transcript TC1500010744.hg.1): 1.317
logFC ATP1B2 (5 µM SAHA vs DMSO, transcript TC1700006763.hg.1): 3.1227
logFC TMEM107 (5 µM SAHA vs DMSO, transcript TC1700009676.hg.1): 1.351
logFC CORO6 (5 µM SAHA vs DMSO, transcript TC1700010252.hg.1): 1.546
logFC C1QL1 (5 µM SAHA vs DMSO, transcript TC1700010856.hg.1): 1.605
logFC TTLL6 (5 µM SAHA vs DMSO, transcript TC1700011007.hg.1): 1.858
logFC (5 µM SAHA vs DMSO, transcript TC1700011261.hg.1): 1.393
logFC TMEM241 (5 µM SAHA vs DMSO, transcript TC1800008281.hg.1): 1.807
logFC REEP6 (5 µM SAHA vs DMSO, transcript TC1900006537.hg.1): 1.987
logFC INAFM1 (5 µM SAHA vs DMSO, transcript TC1900008416.hg.1): 2.5078
logFC PRKCG (5 µM SAHA vs DMSO, transcript TC1900008825.hg.1): 1.503
logFC RFPL4A (5 µM SAHA vs DMSO, transcript TC1900008931.hg.1): 3.505
logFC RFPL4AL1 (5 µM SAHA vs DMSO, transcript TC1900008932.hg.1): 2.766
logFC KCNC3 (5 µM SAHA vs DMSO, transcript TC1900011194.hg.1): 1.754
logFC FXYD7 (5 µM SAHA vs DMSO, transcript TC1900011710.hg.1): 2.141
logFC RTBDN (5 µM SAHA vs DMSO, transcript TC1900011892.hg.1): 2.027
logFC RNF24 (5 µM SAHA vs DMSO, transcript TC2000008242.hg.1): 1.55
logFC TASP1 (5 µM SAHA vs DMSO, transcript TC2000008436.hg.1): 1.327
logFC FLRT3 (5 µM SAHA vs DMSO, transcript TC2000008445.hg.1): 2.943
logFC CYP24A1 (5 µM SAHA vs DMSO, transcript TC2000009522.hg.1): 1.58
logFC LCA5L (5 µM SAHA vs DMSO, transcript TC2100008171.hg.1): 1.839
logFC H1F0 (5 µM SAHA vs DMSO, transcript TC2200007318.hg.1): 1.771
logFC, unannotated transcript (DMSO vs SAHA, downregulated, transcript 23064072): -1.45
logFC, unannotated transcript (DMSO vs SAHA, downregulated, transcript 23064958): -1.242
logFC, unannotated transcript (DMSO vs SAHA, downregulated, transcript 23066344): -2.142
logFC, unannotated transcript (DMSO vs SAHA, downregulated, transcript 23066350): -1.951
logFC, unannotated transcript (DMSO vs SAHA, downregulated, transcript 23066369): -2.142
logFC, unannotated transcript (DMSO vs SAHA, downregulated, transcript 23066376): -1.488
logFC, unannotated transcript (DMSO vs SAHA, downregulated, transcript 23066377): -1.951
logFC, unannotated transcript (DMSO vs SAHA, downregulated, transcript 23068519): -1.54
logFC, unannotated transcript (DMSO vs SAHA, downregulated, transcript 23071518): -1.2407
logFC, unannotated transcript (DMSO vs SAHA, downregulated, transcript 23074026): -1.4
logFC, unannotated transcript (DMSO vs SAHA, downregulated, transcript 23074907): -1.601
logFC, unannotated transcript (DMSO vs SAHA, downregulated, transcript 23075457): -1.338
logFC, unannotated transcript (DMSO vs SAHA, downregulated, transcript 23075879): -1.002
logFC, unannotated transcript (DMSO vs SAHA, downregulated, transcript 23076022): -1.002
logFC, unannotated transcript (DMSO vs SAHA, downregulated, transcript 23076173): -1.06
logFC, unannotated transcript (DMSO vs SAHA, downregulated, transcript HTA2-pos-3662482_st): -0.977
logFC, unannotated transcript (DMSO vs SAHA, downregulated, transcript HTA2-pos-3671550_st): -1.877
logFC, unannotated transcript (DMSO vs SAHA, downregulated, transcript HTA2-pos-3671554_st): -1.443
logFC, unannotated transcript (DMSO vs SAHA, downregulated, transcript HTA2-pos-PSR17008077.hg.1): -1.062
logFC, unannotated transcript (DMSO vs SAHA, downregulated, transcript HTA2-pos-PSR17008082.hg.1): -1.0258
logFC, unannotated transcript (DMSO vs SAHA, downregulated, transcript HTA2-pos-PSR17013958.hg.1): -1.428
logFC ARAF (DMSO vs SAHA, downregulated, transcript TC0X00007148.hg.1): -1.073
logFC RBM3 (DMSO vs SAHA, downregulated, transcript TC0X00007195.hg.1): -1.375
logFC SUV39H1 (DMSO vs SAHA, downregulated, transcript TC0X00007200.hg.1): -1.395
logFC PLP2 (DMSO vs SAHA, downregulated, transcript TC0X00007222.hg.1): -1.034
logFC PBDC1 (DMSO vs SAHA, downregulated, transcript TC0X00007686.hg.1): -1.452
logFC MID2 (DMSO vs SAHA, downregulated, transcript TC0X00008078.hg.1): -1.792
logFC HMGB3 (DMSO vs SAHA, downregulated, transcript TC0X00008724.hg.1): -1.132
logFC TAF9B (DMSO vs SAHA, downregulated, transcript TC0X00010136.hg.1): -1.5452
logFC STS (DMSO vs SAHA, downregulated, transcript TC0X00011259.hg.1): -1.335
